Earlier results as cited in patent US11085047B2, “Synthetic cannabinoid compounds for treatment of substance addiction and other disorders” (MyMD Pharmaceuticals (Florida), Inc., priority 2018, dated 2021).

Key:
[1] = several clinical studies
[2] = 2.5 to 5 mg; three patients

SMILES: CCCCCc1cc(O)c2c(c1)OC(C)(C)[C@@H]1CCC(C)=C[C@@H]21 [THC, tetrahydrocannabinol]
- mood in reactive depression [1]: improvement of mood
- effect on pruritus due to liver diseases [2]: effective
- bronchoconstriction after inhalation (inhalation of THC): Very few patients developed bronchoconstriction
- anti-asthmatic effect (oral THC (15 mg), acute studies): approximately correspond to those obtained with therapeutic doses of common bronchodilator drugs
